Experimental data reported in patent publication US12685739B2, “Compositions and methods for treating lung injury” (University of Maryland, Baltimore, priority 2020, dated 2026).
pEC50: −log10 of the molar value.

Tests used:
[1] = system: rat model of ARDS plus MV; assay: rat model of ARDS (intratracheal HCl) plus mechanical ventilation; assay type: in vivo
Protocol: In other cases, a rat model of ARDS was used in which acute lung injury is induced by acid instillation, followed by mechanical ventilation. […] In a second experiment, a conventional rat model of ARDS plus MV was used. Rats were anesthetized and intubated. […] After inducing ALI, rats received MV for 4 hours, as above, except that VT=8 mL/kg. Rats were euthanized at 24 hours. […] MV (VT=8 mL/kg) was continued for 4 hours, following which rats were extubated, recovered from anesthesia and returned to their home cages. Lung function was evaluated at 24 hours. Rats were re-anesthetized. […] Rats were then re-intubated for MV. […] In a subgroup of rats, after completing the 24-hour lung function assessments, rats were euthanized, and the lungs were […] using 5 mL normal saline to obtain bronchioalveolar lavage fluid (BALF). BALF was analyzed for protein.

[2] = system: human neutrophils; assay: MRP8/14 exocytosis from activated human neutrophils, ELISA; assay type: cell-based; set-up: dose or concentration left out as unconfirmed; conditions: co-incubation with glibenclamide, n=6
Protocol: FIG. 9. […] Exocytosis of MRP8/14 from human neutrophils using ELISA was studied. […] Co-immunoprecipitation experiments were performed to determine whether SUR1 and MRP8/14 physically co-associate.

[3] = system: LPS-induced mouse model of ARDS; assay: LPS-induced mouse model of ARDS; assay type: in vivo; conditions: 10 μg IP 2 hours after LPS and again 5 hours later, 24 hours after LPS, vs vehicle
Protocol: At 24 hours after LPS induction, bronchioalveolar fluid (BALF) was analyzed for neutrophil infiltration, and lung tissues were analyzed for cytokine expression. […].
At 24 hours after LPS induction, bronchioalveolar fluid (BALF) was analyzed for neutrophil infiltration, and lung tissues were analyzed for S100A8/MRP8, which is released by neutrophils. As previously, LPS instilled into the lungs caused a massive invasion of neutrophils into the BALF, as well as dramatic accumulation of the S100A8/MRP8. […]

[4] = system: SUR1-regulated channels; conditions: in vitro, low-dose; read-out: EC50, inhibition of SUR1-regulated channels; cited from earlier work
[5] = system: murine model of ALI induced by intranasal ovalbumin (OVA); conditions: 20 mg/kg, mice pre-sensitized to OVA; cited from earlier work
[6] = system: rat model of ALI induced by IV administration of oleic acid (OA); conditions: 75 mg/kg IP 1 hour before OA; cited from earlier work
[7] = system: mouse model of ventilator-induced lung injury (VILI); conditions: 50 mg/kg, VT=15 mL/kg; cited from earlier work
[8] = system: rat model of VILI with MV alone; assay: rat model of VILI with mechanical ventilation alone; conditions: 10 μg/kg IP at start of MV, MV 4 hours (10 mL/kg), assessed at 24 hours, vs vehicle
[9] = 50 μg/kg IP at onset of MV and at 6 hours, 24 hours, vs VEH

COc1ccc(Cl)cc1C(=O)NCCc1ccc(S(=O)(=O)NC(=O)NC2CCCCC2)cc1 [glibenclamide]
dynamic lung compliance, pressure-volume curve [1, 9]: the shift to the right was less pronounced
hemoglobin (Hgb) in lung tissues, immunoblot [1, 9]: less hemorrhagic exudate
hemorrhagic exudates, gross appearance of lungs [1, 9]: reduced hemorrhagic exudates
protein in BALF [1, 9]: the increase was less pronounced
oxygen saturation (sO2), pulse oximetry ([1]; 50 μg/kg IP at onset of MV and at 6 hours, at 24 hours, n=3): 88±4.4%
cellular infiltrates, H&E-stained lung sections ([1]; ARDS with MV, vs VEH): reduced cellular infiltrates
neutrophil invasion, immunohistochemistry for MPO ([1]; lung tissues, vs VEH): less pronounced
quantification of MPO by immunohistochemistry and immunoblot ([1]; lung tissues, vs VEH): significant reduction
NOS2 expression in lung tissues ([1]; vs VEH): attenuated
TNF expression in lung tissues ([1]; vs VEH): attenuated
MRP8/14 exocytosis (release into extracellular media) ([2]; neutrophils stimulated with LPS): significantly reduced
MRP8/14 exocytosis (release into extracellular media) ([2]; neutrophils stimulated with PMA): significantly reduced
IL-6 in lung tissues [3]: significant reduction
MCP-1 in lung tissues [3]: significant reduction
S100A8/MRP8 in lung tissues [3]: significant reduction
neutrophils in BALF [3]: significant reduction
IL-6 in lung tissues ([3]; listed as Glibenclamide): significant reductions
MCP-1 in lung tissues ([3]; listed as Glibenclamide): significant reductions
pEC50 [4]: 7.32
Th2 cytokines IL-5, IL-4 and IL-13 in BALF [5]: significantly reduced
levels of myeloperoxidase (MPO) and malondialdehyde (MDA) [6]: reduced levels
pulmonary interstitial edema, infiltration of neutrophils and mononuclear cells [6]: significantly alleviated
BALF total protein, neutrophils, IL-1β, IL-6 and KC levels [7]: reduced
pulmonary edema [7]: reduced pulmonary edema
pulmonary edema (wet weight/dry weight) [8]: significantly reduced
pulmonary edema (wet weight/dry weight) ([8]; listed as GLIB): significantly decreased pulmonary edema
pulmonary edema (wet weight/dry weight) ([8]; listed as Glibenclamide): significantly decreased pulmonary edema
